Measured values from patent US11357749B2, “Methods for treating neutropenia” (Enzychem Lifesciences Corporation, priority 2014, dated 2022).

B1: G-CSL: Granulocyte-colony stimulating factor, glycoprotein that stimulates hematopoietic precursor cells; 0.25 mpk i.p. in mice (protein, UniProt P09920 31-208, looked up)
Granulocyte …: VPLVTVSALPPSLPLPRSFLLKSLEQVRKIQASGSVLLEQLCATYKLCHPEELVLLGHSLGIPKASLSGCSSQALQQTQCLSQLHSGLCLYQGLLQALSGISPALAPTLDLLQLDVANFATTIWQQMENLGVAPTVQPTQSAMPAFTSAFQRRAGGVLAISYLQGFLETARLALHHLA

Assays:
[1] = system: C3; assay: C3 expression (RT-PCR) in IL-4/TNF-α treated HMC-1 cells; type: cell-based, human; settings: HMC-1 cells treated with IL-4 and TNF-α; PLAG 0.1 and 1 μg/mL
Description: A blood cell line, HMC-1 (human mast cell, American Type Culture Collection, ATCC, Rockville, Md.) is incubated and maintained at 37° C. under 5% CO2 humid conditions. The medium is IMDM (Life Technologies, Karlsruhe, Germany) containing 10% Fetal Calf Serum (FCS, HyClone, Logan, Utah), 2 mM […], 100 μg/ml penicillin, 100 μg/ml streptomycin (Life Technologies). The cultured HMC-1 cells (1×10^6 cell/ml) are pre-treated with 0.1 and 1 μg/mL concentration of PLAG, followed by treating with IL-4 (5 ng) and/or TNF-α (10 ng) to induce cellular activities.
The expressed C3 and its mRNA level change are observed by using RT-PCR (Reverse Transcriptase Polymerase Chain Reaction). The RT-PCR is carried out as follows: the total RNA is separated by the standard protocol and cDNA is synthesized using AccuScript High Fidelity 1st Strand cDNA Synthesis Kit (Stratagene) by the manufacturer's instructions. Two-step RT-PCR reaction is conducted using Oligo-dT primer and reverse transcriptase, pair of primer and Taq polymerase (Takara, Shiga, Japan). […] The product of PCR is separated using 1.5% agarose gel, dyed with ethidium bromide (EtBr), and visualized with Gel Doc 2000 UV trans-illuminator (Bio-Rad Laboratories, Hercules, Calif., USA), and the experimental data is analyzed using Quantity One software (Bio-Rad Laboratories).

[2] = system: C3; assay: C3 mRNA (RT-PCR) in HepG2 cells; type: cell-based, human; settings: HepG2, 10 and 100 microgram/ml of S6I, compared with PLAG
Description: A liver cell line, HepG2 (American Type Culture Collection, ATCC, Rockville, Md.), is incubated and maintained at 37° C., 5% CO2 humid atmosphere in DMEM medium. When HepG2 cells, which are known to produce complement in culture, are treated with PLAG, the activity of complement is reduced effectively, as confirmed by RT-PCR of mRNA. In the RT-PCR, 5×10^5 number of HepG2 cells/ml are distributed into 12 well plates and induced C3 for 12 hours with 10% FCS. Then PLAG is added and further cultured for 2 hours. Cells are harvested and mRNA is isolated and RT-PCR is carried out with specific primer of C3; GAPDH is used as an internal control.

[3] = system: white blood cells and neutrophils; assay: Cyclophosphamide-induced neutropenia in mice, G-CSF with or without PLAG; type: in vivo; settings: mice, cyclophosphamide 100 mpk i.p. ten days; G-CSF 0.25 mpk i.p.; PLAG 25 mpk p.o.
Description: Mice receive cyclophosphamide (100 mpk, i.p.) for a period of ten days, with or without G-CSF (0.25 mpk, i.p.) or G-CSF (0.25 mpk, i.p.) plus PLAG (25 mpk, p.o.): […]

Molecule | expression of C3 [1] | C3 expression (RT-PCR) [2] | Neutrophils [3] | White blood cells (WBCs) [3]
NC(=O)c1cnc(NCCc2ccc(O)c(Cl)c2)nc1NCc1ccccc1 [S6I, reference compound] | suppresses expression of C3 | comparable | – | –
B1 | – | – | 4.36 k/μl | 5.37 k/μl
